From patent US9775835B2 (priority 2012, dated 2017) come the findings set out here.

The test system of one experiment is HIV (strain NL4-3). Kind of experiment: HIV cell based assay (Level 1 / Level 2 Screen; CFAR assay): 293T transfection, TZM-bl infection, luciferase. The arrangement: species or system HIV-1. Particulars: for Anti-HIV bioactivity of hits and analogs: second round with analogs, FIGS. 12 A, B, C. On the procedure:
Five hundred of the 1000 small molecule hits, having the highest binding affinity with the ASL's hypermodifications, were selected for screening at high concentration against HIV infected mammalian cells (FIG. 10). Briefly, toxicity was first assessed in 293T cells in 96-well plates (10^4 cells/well) by adding 50, 5 and 0.5 μM of small molecules in triplicate at each concentration. After two days, cells were assessed for poor growth versus control cells. Once the concentration of the small molecules at which the cells looked normal was established, these molecules were screened for anti-HIV activity through a transfection/infection protocol. An infectious molecular clone of HIV (strain NL4-3) was transfected into 293T cells using FuGene6 (Roche). After four hours, the cells were split into 96-well plates (10^4 cells/well) and the small molecules were added at the appropriate concentration in triplicate. After 48 hours of incubation of cells in the presence of the small molecules, virus-containing medium (50 μL) was removed from each well and transferred into a fresh 96-well plate containing TZM-bl cells for infection (10^4 cells/well). After 48 hours, the cells were assayed for luciferase expression. Controls were untransfected 293T cells and transfected cells without the small molecules added. Results from various small molecules with the best inhibition of HIV are shown in (FIG. 10). Active small molecules 2493, 9324, 8317, 2725, 3643, 2491, 12327, 14094, 12204, 12744, 12745, 12542, 18198, 18200, 8391, 6188, 16286 and 2712 have 80-95% inhibitory effect on the HIV propagation. These small molecules with bioactivity against HIV propagation are an example of some the hits further tested in a concentration-dependent screening.
Bioactive molecules selected in Level 1 Screen were tested using the cell based assay in a concentration (dose)-dependent manner for their ability to inhibit HIV propagation (FIG. 11). The HIV cell based assay experimental protocol described in Level 1 screen was used to conduct the Level 2 Screen. […] In addition to the concentration-dependent, cell based assay, the inhibitory activities of the active molecules identified in Screen Level 1 were also assessed using the MBS assay. This assay has been developed and standardized to mimic the unique properties characteristic of the HIV viral protein recruitment and preparation of the human host tRNA3^Lys as primer of reverse transcription. Thus, the cell-based assay and the “MBS” assay were used to confirm the mechanism of action of the hits against the functional interaction of htRNA3^Lys with HIV proteins. The MBS is a “mix and measure” assay that consists of the formation of a complex between the fluorescent peptide P6 and the fully modified anticodon stem and loop of htRNA3^Lys. The concentration of the small molecules was 150 μM i.e. 300 fold of that of P6. […] In the presence of various selected active molecules, inhibition of the complex between P6 and hASL3^Lys was observed (FIGS. 12 A, B and C). The results of these experiments allowed identification and concentration towards a smaller pool of active molecules.
In order to confirm the activity of the small molecules showing potential anti-HIV inhibition, a second round of testing using their analogs (˜20 analogs were chosen for each selected active small molecule) was initiated using the same cell based assay employed in Level 1 Screen and Level 2 Screen. […] The quality and structure of the small molecule hits and their respective analogs were confirmed by NMR and Liquid Chromatography coupled with Mass Spectrometry (LC-MS).
Dose response data of the active molecules were generated by running the biochemical and functional assays at varying concentration. The potency properties which is one of the characteristics that defines a hit, is evaluated based on the criteria that potency (IC50)<3 μM in the MBS assay and EC50<10 μM in the HIV cell based assay (See FIG. 19). […]

Experiment [1] has as its system HIV strains NLA3, HXB and JR-CSF. Kind of experiment: HIV strain screening. Format: cell-based. Particulars: FIG. 13. From the text: Small molecules were also screened for their effectiveness against various HIV strains. For example, the effects of small molecules of interest on HIV strains NLA3, HXB and JR-CSF were studied. […] FIG. 13. Further, small molecules were screened for their effectiveness against other HIV drugs that have different modes of action. For example, various small molecules of interest in the initial screen were studied for their effectiveness relative to protease inhibitors (Saquinavir by Roche) and reverse-transciptase inhibitors (Nevirapine by Boehringer Ingelheim) against various strains, including tri-therapy resistant HIV strains. FIGS. 13 and 14. In one specific study, the effect of small molecules on cell culture HIV viral propagation was compared to no drug (by reviewing % Relative Luminescence Unit (RLU)). Small molecules were also compared to Saquinavir and Nevirapine in both standard HIV strain and Tri-therapy resistant HIV strains. FIG. 14.

The target of experiment [2] is hASL3^Lys-mcm^5s^2U34;ms^2t^6A37;Ψ39. Description: Fluorescence quenching binding of P6 / NCp7 to fully modified hASL3^Lys. The arrangement: species or system human. The conditions noted are these: FIGS. 5 and 6. The text has this:
(§1) The phage-display selection of peptides was completed (randomized 15 mers, and 16 mers with cysteines at two sites for the possible generation of Zn^+2 ‘knuckles’ structures reminiscent of the HIV protein, NCp7) against the fully modified anticodon stem and loop domain of htRNA3^Lys with 5-methoxycarbonylmethyl-2-thiouridine at position 34, 2-methylthio-N^6-threonylcarbamoyladenosine-37 and pseudouridine-39 (hASL3^Lys-mcm^5s^2U34;ms^2t^6A37;Ψ39) covalently attached to microtiter avidin-plates with biotin. In reiterative and competitive phage-display library selections, the two libraries yielded 20 recurring peptide sequences that had reasonable solubility among 155 sequenced clones (Table 2). The hASL3^Lys binding properties of the peptides were characterized using chemically synthesized peptides with an N-terminal fluorescent reporter. One strongly binding, highly specific peptide (P6) was selected. Its ability to mimic the binding of the natural HIV protein, NCp7, to modified htRNA3^Lys was validated. […] Footprinting of P6 on the modified hASL3^Lys by high resolution mass spectrometry indicated conclusively that the anticodon and 3′-adjacent side of the loop were protected (Graham et al., supra).

In experiment [3] the test system is hASL3^Lys-mcm^5s^2U34;ms^2t^6A37;Ψ39. Kind of experiment: Mechanism based secondary (MBS) assay: competition with fluorescent peptide P6 for hASL3^Lys. Format: binding, human. The conditions noted are these: complex formation in the absence of small molecules. From the text: In order to identify a set of small molecule ‘hits’, that inhibit viral recruitment or viral preparation of htRNA3^Lys, the inventors developed a microtiter plate-based fluorescence assay. This mechanism based secondary (MBS) assay uses selected peptides that best mimic HIV proteins in their binding to htRNA3^Lys. The present invention uses the above-mentioned MBS assay to identify small molecule bioactive hits against a host cell RNA interaction with HIV proteins critical to viral replication. These hits can now be optimized into a completely different class of HIV drug, one that is far less likely to elicit drug resistance. The present invention is exploiting affinity selected peptides as tools to investigate and understand RNA chemistry and structure, including naturally occurring modifications, as identity elements for HIV protein recognition of the human tRNA3^Lys.
MBS assay is based on phage display selected peptides that mimic HIV proteins by binding with high affinity and specificity to only the portion of the htRNA3^Lys of interest, the hASL3^Lys (Graham et al., J. Mol. Biol. 2011, 410(4):698-715; Vendeix et al., J. Mol. Biol. 2012, 416(4):467-85). […] The MBS assay is readily amenable to thermodynamic and structural analyses and nucleotide and peptide amino acid changes for optimization. […]

A further experiment deals with unmodified ASL3^Lys. Description: Fluorescence quenching binding of P6 / NCp7 to unmodified ASL3^Lys. The arrangement: species or system human. The conditions noted are these: modification-dependency.
Excerpt: as §1

Another experiment concerns hASL3^Lys. Kind of experiment: Circular dichroism of NCp7 and P6 complexes with hASL3^Lys. The arrangement: species or system human. The conditions noted are these: decrease in CD ellipticity with increasing amounts, FIG. 7. In general terms: Circular dichroism is widely used to follow secondary structure.
The mark [4] stands for this setting: Human immunodeficiency virus 1, NL43, read-out: IC 50 (units).

Where two headings read alike, the source gives them in different places.

Turning to `CC(C)c1ccc(OCC(=O)N2C(C)CCCC2C)c(Br)c1` (stereo not shown) [Compound 1668-1, 2-(2-bromo-4-isopropylphenoxy)-1-(2,6-dimethylpiperidin-1-yl)ethanone], the IC50 in the experiment with HIV (strain NL4-3) (setting [4]) is 34 µM.

`CC1CCCC(C)N1C(=O)COc1ccc(C(C)(C)C)cc1Br` (stereo not shown) [Compound 1668-12, 2-(2-bromo-4-tert-butylphenoxy)-1-(2,6-dimethylpiperidin-1-yl)ethanone]: the “Anti-HIV bioactivity of hits and analogs” value with HIV (strain NL4-3) is “showed potential anti-HIV inhibition”.

`CC1(C)CC(NC(=O)COc2ccc3ccccc3c2Br)CC(C)(C)N1` [Compound 1668-17, 2-(1-bromonapthalen-2-yloxy)-N-(2,2,6,6-tetramethylpiperidin-4-yl)acetamide]: the “Anti-HIV bioactivity of hits and analogs” value in the experiment on HIV (strain NL4-3) is reported as “some of the most bioactive inhibitors”.

Consider `Cc1cc(NC(=O)C(=O)NC2CC(C)(C)NC(C)(C)C2)ccc1Br` [Compound 1668-18, N^1-(4-bromo-3-methylphenyl)-N^2-(2,2,6,6-tetramethylpiperidin-4-yl)oxalimide], for which the “Inhibiting infection of HIV strains relative to no addition of drug” value in experiment [1] is “particularly effective”. Further, in the experiment on HIV (strain NL4-3), the “Anti-HIV bioactivity of hits and analogs” value is “some of the most bioactive inhibitors”.

As to `NS(=O)(=O)c1cccc(NC(=O)Nc2ccc(Cl)c(Cl)c2)c1` [Compound 2491, 3-(3-(3,4-dichlorophenyl)ureido)benzenesulfon-amide], the IC50 in the experiment with HIV (strain NL4-3) (Human immunodeficiency virus 1, NL43, other small molecule table, assay not given, values lie in the CFAR range of b151, read-out: IC 50) was 75 µM.

With `COCCNC(=O)c1ccc2c(=O)n(CCC3=CCCCC3)c(=S)[nH]c2c1` [Compound 6188-1, 3-(2-cyclohexenylethyl)-N-(2-methoxyethyl)-4-oxo-2-thioxo-1,2,3,4-tetrahydroquinazoline-7-carboxamide], the IC50 in the experiment with HIV (strain NL4-3) (Human immunodeficiency virus 1, NL43, quinazoline table, assay not given, value lies in the CFAR range of b151, read-out: IC50) turned out to be 3.3 µM.

Take `O=[N+]([O-])c1cccc(Nc2nc(O)nc(N3CCCCC3)n2)c1` [Compound 8391-5, 4-(3-nitrophenylamino)-6-(piperidin-1-yl)-1,3,5-triazin-2-ol]: in the experiment with HIV (strain NL4-3), the “Anti-HIV bioactivity of hits and analogs” value is “showed potential anti-HIV inhibition”.

For the molecule `c1ccc(Nc2nc(Nc3ccccc3)nc(N3CCNCC3)n2)cc1` [Compound 8391-6, N^2,N^4-diphenyl-6-(piperazin-1-yl)-1,3,5-triazine-2,4-diamine], the IC50 in the experiment on HIV (strain NL4-3) (setting [4]) amounted to 5.3 µM.

`COc1cc2c(cc1OC)C1=C(C#N)CC/C(=N\C(=O)c3ccco3)N1CC2` [Compound 18200-2, (E)-N-(1-cyano-9,10-dimethoxy-6,7-dihydro-2H-pyrido[2,1-a]isoquinolin-4(3H)-ylidene)furan-2-carboxamide]: in the experiment with HIV (strain NL4-3), the “Anti-HIV bioactivity of hits and analogs” value was “some of the most bioactive inhibitors”.

Turning to `COc1cc2c(cc1OC)C1=C(C#N)CCC(=O)N1CC2` [Compound 18200-3, 9,10-dimethoxy-4-oxo-3,4,6,7-tetrahydro-2H-pyrido[2,1-a]isoquinoline-1-carbonitrile], the “Anti-HIV bioactivity of hits and analogs” value in the experiment on HIV (strain NL4-3) is given as “some of the most bioactive inhibitors”.

With `COc1cc2c(cc1OC)C1=C(C#N)CC/C(=N\C(=O)c3ccc(Cl)cc3)N1CC2` [Compound 18200-4, (E)-4-chloro-N-(1-cyano-9,10-dimethoxy-6,7-dihydro-2H-pyrido[2,1-a]isoquinolin-4(3H)-ylidene)benzamide], the IC50 with HIV (strain NL4-3) (Human immunodeficiency virus 1, NL43, isoquinoline table, assay not given, value lies in the CFAR range of b151, read-out: IC 50) stood at 14 µM.

Usually Kd stands for the free concentration of one partner at which half of the binding sites on the other are occupied at equilibrium, for simple one-to-one binding. Read a low Kd as tighter binding. Regarding RVTHHAFLGAHRTVG [Compound P6], in experiment [2], the affinity, expressed as Kd, was 0.45 ± 0.05 µM. Moreover, the “Quenching of the fluorescence of the fluorescein-tagged P6 by hASL3^Lys” value in experiment [3] was around 80%. Also, the “Kd with unmodified ASL3^Lys” value at unmodified ASL3^Lys is given as “incalculable”. For the same molecule, the “Effect on hASL3^Lys structure by circular dichroism” value in the experiment on hASL3^Lys is “denature the hASL3^Lys structure”.
